Measurements taken from patent publication US5795885A, “Method of inhibiting profileration of cells by administering an aminosterol compound” (priority 1995, dated 1998).

Key:
[1] = test system: human epithelial cell line MCF 10A; experiment: growth inhibition of human epithelial cells in vitro; type: cell-based; details: 10 μg/ml
[2] = test system: VX2 carcinoma implanted into the rabbit cornea; experiment: tumor-induced (VX2 carcinoma) corneal neovascularization in rabbits; type: in vivo; details: ELVAX 40 P pellet
Excerpt: The implantation of VX2 carcinoma into the rabbit cornea results in the induction of new blood vessels within several days (Tamargo et al., Cancer Research 51, 1991, 672-675). It is believed that this carcinoma secretes growth factors that stimulate new blood-vessel growth. Thus, this model is indicative in vivo evidence of therapeutic utility in the treatment of pathological disorders of vascularization, including the metastatic spread of tumors, diabetic retinopathy, macular degeneration, and rheumatoid arthritis.
This experiment followed the published protocol--tumor was implanted adjacent to a polymer containing a concentration of the agent to be evaluated. The polymer releases the agent slowly in the immediate neighborhood of the tumor, providing sustained high local concentrations of the agent. In this experiment, squalamine introduced into a pellet of ELVAX 40 P (DuPont, Wilmington, Del.) inhibited new blood vessel formation by about 60% at days 7 and 14, and by about 25% at day 21.

[3] = test system: PHA-stimulated human lymphocytes; experiment: inhibition of mitogen (PHA)-stimulated growth of human T-cells; type: cell-based
Excerpt: Results are tabulated below.

[4] = test system: rabbit NHE1; experiment: internal pH recovery, PS120 fibroblasts transfected with rabbit NHE1 (BCECF-AM); type: cell-based; details: 5 μg/ml; acid-preloaded by 40 mM NH4Cl
Method: (§1) PS120 fibroblasts transfected with rabbit or human NHE1 were grown as described above.

[5] = test system: chick chorioallantoic membrane; experiment: chorioallantoic membrane (CAM) model, capillary growth; type: in vivo
Excerpt: The growing capillaries within the chorioallantoic membrane model (CAM model) have been used as a system in which to evaluate the effect of agents on their potential to inhibit new vessel growth. Neovascularization occurs most aggressively over the first week of embryonic development. Thereafter capillary growth is characterized by principally "elongation" rather than "de novo" formation.
In the standard assay, agents are applied locally to a region of the embryo over which neovascularization will occur. Agents are assessed by their ability to inhibit this process, as evaluated by visual examination about 7 days after application. […] The assay utilized is described in detail in Auerbach et al., Pharm. Ther. 51, 1991, 1-11.

[6] = test system: bovine pulmonary endothelial cells; experiment: growth inhibition of bovine pulmonary endothelial cells in vitro; type: cell-based; details: 1 μg/ml
[7] = test system: human coronary artery smooth muscle; experiment: proliferation of human coronary artery smooth muscle in vitro; type: cell-based; details: FIG. 15
Excerpt: Aminosterols of the invention may also have utility in inhibiting the growth factor mediated proliferation of smooth muscle within the artery. Following coronary angioplasty, reocclusion commonly occurs, secondary to reparative proliferation of the vascular smooth muscle within the wall of the surgically manipulated blood vessel. This process generally takes place over the course of 7-10 days. To evaluate whether an agent could prevent the growth factor mediated proliferation of smooth muscle within the artery, compound 1436 was evaluated in vitro for its effect on the proliferation of human coronary artery smooth muscle. Results for compound 1436 are shown in FIG. 13, and those for squalamine are shown in FIG. 14, with FIG. 15 being a composite logarithmic plot.

[8] = test system: stage 59-60 Xenopus tadpoles; details: 10 μg/ml in water
[9] = test system: human foreskin fibroblasts; experiment: growth inhibition of human foreskin fibroblasts in vitro; type: cell-based; details: 10 μg/ml
[10] = test system: Murine B16 melanoma; experiment: growth inhibition in vitro; type: cell-based; details: except at very high concentrations
Excerpt: As set forth in Table 7 below, all malignant tumors evaluated in tissue culture, endothelial cells and vascular smooth muscle cells were sensitive to inhibition. Thus, compound 1436 has application in the control of growth factor dependent proliferation of many types of tissue.

[11] = test system: human microvascular cells; experiment: endothelial cell cord formation in vitro; type: cell-based
Excerpt: Endothelial cells have the capacity in vitro to form tubular aggregates resembling capillaries in various early stages of formation. This conversion occurs under relatively specific conditions, in which essential growth factors along with an effective substratum are provided. It has been shown that both the interaction of growth factors with the endothelial cell and its attachment to a substratum activate the NHE. The activation of this exchanger is believed to be required for subsequent morphologic transformation of the endothelial cell into a multicellular tubular structure.
To assess the effect of compounds on the cord-like structures formed by human microvascular cells when plated in the presence of VEGF (Vascular Endothelial Growth Factor) and basic fibroblast growth factor on a collagen matrix, a standard cord formation assay was used.

[12] = test system: bacteria, fungi and protozoa; details: cited from earlier work
[13] = test system: human melanoma 1205Lu; experiment: growth of human melanoma 1205Lu in immunocompromised RAG-1 mice; type: in vivo, RAG-1 mice (human tumor)
Excerpt: As apparent from FIG. 5, melanoma 1205Lu develops aggressively in RAG-1 mice after implantation.

[14] = target: rabbit NHE3 (Oryctolagus cuniculus, UniProt P26432); details: 5 μg/ml
Chain of rabbit NHE3 (P26432 30-832): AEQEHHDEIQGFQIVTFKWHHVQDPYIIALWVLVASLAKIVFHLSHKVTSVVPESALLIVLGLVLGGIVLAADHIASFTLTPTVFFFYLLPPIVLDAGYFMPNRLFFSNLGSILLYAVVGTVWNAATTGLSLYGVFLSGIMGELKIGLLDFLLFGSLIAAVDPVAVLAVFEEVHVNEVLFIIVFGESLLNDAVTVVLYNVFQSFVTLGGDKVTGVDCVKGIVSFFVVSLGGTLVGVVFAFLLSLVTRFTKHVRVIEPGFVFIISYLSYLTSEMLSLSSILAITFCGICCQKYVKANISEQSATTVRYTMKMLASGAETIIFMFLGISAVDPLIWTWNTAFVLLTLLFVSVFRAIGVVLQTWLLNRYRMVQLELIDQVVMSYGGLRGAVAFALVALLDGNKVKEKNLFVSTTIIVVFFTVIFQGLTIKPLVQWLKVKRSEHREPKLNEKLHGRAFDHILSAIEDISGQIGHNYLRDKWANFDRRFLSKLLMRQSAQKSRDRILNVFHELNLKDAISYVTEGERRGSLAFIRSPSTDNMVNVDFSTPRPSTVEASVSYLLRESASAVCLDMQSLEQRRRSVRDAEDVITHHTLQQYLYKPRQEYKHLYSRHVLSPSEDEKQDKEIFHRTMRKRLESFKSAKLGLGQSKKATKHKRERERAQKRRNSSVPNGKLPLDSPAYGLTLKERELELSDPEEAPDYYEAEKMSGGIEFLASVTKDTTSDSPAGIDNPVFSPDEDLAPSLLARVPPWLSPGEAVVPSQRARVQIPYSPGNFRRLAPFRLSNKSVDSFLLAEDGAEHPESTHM
Method: Internal pH was measured either following acid loading or in the absence of an acid-loading challenge, with the results shown in FIGS. 1A and 1B.
Specifically, PS120 fibroblasts transfected with rabbit NHE3 were grown in supplemented Dulbecco's-modified Eagle's medium as described by Levine et al., J. Biol. Chem. 268, 1993, 25527-25535. […] For cells not acid-preloaded, the actual internal pH value was monitored as a function of time following addition of squalamine, with the results depicted in FIG. 1B.
PS120 fibroblasts transfected with rabbit NHE3 were grown and acid preloaded by exposure to 40 mM NH4 Cl as described above in conjunction with FIGS. 1A and 1B. Internal cellular pH changes expressed as the rate of pH recovery as a function of restored extracellular sodium ion concentration following exposure to 10 μg/ml of the compound were assayed with the fluorescent dye BCECF-AM as described above.

[15] = test system: chick embryo vitelline capillaries; experiment: chick embryo vitelline capillary regression assay; type: in vivo; design: key to vitelline capillary regression: +: Vascular reactivity; 0: No vascular reactivity; +/-: Equivocal reactivity; details: for vitelline capillary regression: 60 minutes
In short: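 Compounds applied to 3- to 5-day chick embryos in 0.1 ml of 15% Ficol 400 in PBS. Regression of vitelline capillaries, seen as pinching-off of capillary loops into enclosed sacs, was scored visually after 60 minutes.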

[16] = test system: human NHE1; experiment: internal pH recovery, PS120 fibroblasts transfected with human NHE1 (BCECF-AM); type: cell-based; details: 5 μg/ml; acid-preloaded by 40 mM NH4Cl
Method: as §1

CC(C)[C@@H](CC[C@@H](C)[C@H]1CC[C@H]2[C@@H]3[C@H](O)C[C@H]4C[C@@H](NCCCNCCCCN)CC[C@]4(C)[C@H]3CC[C@]12C)OS(=O)(=O)O [Squalamine, squalamine]
growth of epithelial line [1]: no effect on the growth
inhibition of new blood vessel formation ([2]; day 7): about 60%
inhibition of new blood vessel formation ([2]; day 14): about 60%
inhibition of blast transformation (in words) ([3]; 10 μg/ml): Some effect was observed
inhibition at 1 µg/mL ([3]; Homo sapiens, Lymphocyte, 1 μg/ml, read-out: inhibition of PHA-stimulated human lymphocytes (% control)): 3%
inhibition at 5 µg/mL ([3]; Homo sapiens, Lymphocyte, 5 μg/ml, read-out: inhibition of PHA-stimulated human lymphocytes (% control)): 8%
inhibition at 10 µg/mL ([3]; Homo sapiens, Lymphocyte, 10 μg/ml, read-out: inhibition of PHA-stimulated human lymphocytes (% control)): 10%
inhibition of rabbit NHE1 [4]: no inhibitory activity
amount resulting in inhibition of CAM vessel neovascularization ([5]; 3-day CAM): ≤ 0.65 µg
inhibitory effect on 13-day old chick ([5]; ten times 0.65 μg): no inhibitory effect
growth of bovine pulmonary artery endothelial cells (BPE) [6]: inhibited the growth
suppression of growth (in words) [7]: suppress in vitro the growth of human coronary artery smooth muscle
time to death of tadpole [8]: ≤ 2 h
pharmacological response in tadpole ([8]; listed as Compound 1256 (Squalamine)): Vascular occlusion in fine capillaries of tail. No effect on vascular flow through hands or feet.
growth of fibroblast line [9]: no effect on the growth
cytostatic activity against B16 in culture [10]: minimal cytostatic activity against B16 in culture
effect on endothelial cord formation ([11]; 0.01 μg/ml): -
effect on endothelial cord formation ([11]; 0.1 μg/ml): +
effect on endothelial cord formation ([11]; 1.0 μg/ml): +
effect on endothelial cord formation ([11]; 10.0 μg/ml): +
cell viability or proliferation ([11]; at these concentrations): does not appear to profoundly affect cell viability or proliferation
antibiotic activity [12]: broad-spectrum antibiotic, killing bacteria, fungi and protozoa
suppression of melanoma 1205Lu growth ([13]; 10, 20, 40 mg/kg/d, after tumors reached about 0.1 ml): found to suppress the growth of melanoma 1205Lu in RAG-1 mice in a dose-dependent fashion
tumor growth after cessation of treatment ([13]; in vivo): tumor growth continued at a rate similar to untreated controls
inhibition of NHE3 ([14]; acid-preloaded by 40 mM NH4Cl): inhibited NHE3 with respect to proton concentration at both Km and Vmax levels
resting pH ([14]; cells not acid-preloaded): the resting pH of these cells was also inhibited
vitelline capillary regression ([15]; 0.001 μg applied): 0
vitelline capillary regression ([15]; 0.01 μg applied): +
vitelline capillary regression ([15]; 0.1 μg applied): +
vitelline capillary regression ([15]; 1 μg applied): +
vitelline capillary regression ([15]; 10 μg applied): +
hemolysis ([15]; 0.1 ml in 15% Ficol in PBS): absence of hemolysis
hemorrhage ([15]; 0.1 ml in 15% Ficol in PBS): No hemorrhage was seen
lag period before vessel constriction ([15]; 0.1 ml in 15% Ficol in PBS): around 15 minutes
activity in vitelline capillary regression assay (in words) ([15]; in vivo): especially active
effect on chick embryo vitelline capillaries (in words) ([15]; in vivo): found to disrupt vitelline capillaries in 3- to 5-day chick embryos
inhibition of human NHE1 [16]: no inhibitory activity
